In patent US10407381B2 (THE BOARD OF TRUSTEES OF THE UNIVERSITY OF ILLINOIS, priority 2015, dated 2019):
Where two headings read alike, the source gives them in different places.

What was measured:
5-HT2C receptor = molecular target: T1, 5-HT2C receptor (Homo sapiens, UniProt P28335); details: cited from earlier work; for selectivity for 5-HT2C relative to 5-HT2B: 5-HT2C versus 5-HT2B
T1 sequence (P28335 33-458): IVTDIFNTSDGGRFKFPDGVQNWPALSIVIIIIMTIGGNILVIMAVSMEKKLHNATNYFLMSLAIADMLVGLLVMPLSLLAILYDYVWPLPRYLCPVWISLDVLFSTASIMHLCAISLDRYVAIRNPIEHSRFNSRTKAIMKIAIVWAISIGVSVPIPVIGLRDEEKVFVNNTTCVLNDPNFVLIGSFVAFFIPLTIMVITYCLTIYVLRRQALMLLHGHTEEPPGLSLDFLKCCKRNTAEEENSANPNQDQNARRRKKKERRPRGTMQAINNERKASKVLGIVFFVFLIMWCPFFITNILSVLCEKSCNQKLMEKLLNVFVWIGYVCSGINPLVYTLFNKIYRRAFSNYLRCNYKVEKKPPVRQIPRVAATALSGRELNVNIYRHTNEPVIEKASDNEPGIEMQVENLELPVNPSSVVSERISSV

[1] = 10-60 mg/kg; cited from earlier work
5-HT2B [2] = molecular target: T2, 5-HT2B (Homo sapiens, UniProt P41595); details: background, reported values; cited from earlier work
Target sequence in this assay (P41595 whole entry, species assumed): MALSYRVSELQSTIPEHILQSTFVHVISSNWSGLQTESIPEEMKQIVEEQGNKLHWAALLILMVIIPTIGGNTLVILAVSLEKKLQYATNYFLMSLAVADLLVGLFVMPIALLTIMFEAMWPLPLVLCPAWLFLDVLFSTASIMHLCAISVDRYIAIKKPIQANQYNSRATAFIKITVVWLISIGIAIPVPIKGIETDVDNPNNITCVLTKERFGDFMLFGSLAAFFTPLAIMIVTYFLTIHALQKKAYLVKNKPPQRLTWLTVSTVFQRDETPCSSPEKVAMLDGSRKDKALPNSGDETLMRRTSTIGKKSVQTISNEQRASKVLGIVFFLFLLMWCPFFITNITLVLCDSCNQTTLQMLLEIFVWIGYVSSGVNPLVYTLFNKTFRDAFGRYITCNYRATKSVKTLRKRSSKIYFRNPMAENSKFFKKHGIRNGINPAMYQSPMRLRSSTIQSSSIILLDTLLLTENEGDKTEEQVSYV

5-HT2A [3] = molecular target: T3, 5-HT2A (Homo sapiens, UniProt P28223); details: background, cited from earlier work
Target sequence in this assay (P28223 whole entry, species assumed): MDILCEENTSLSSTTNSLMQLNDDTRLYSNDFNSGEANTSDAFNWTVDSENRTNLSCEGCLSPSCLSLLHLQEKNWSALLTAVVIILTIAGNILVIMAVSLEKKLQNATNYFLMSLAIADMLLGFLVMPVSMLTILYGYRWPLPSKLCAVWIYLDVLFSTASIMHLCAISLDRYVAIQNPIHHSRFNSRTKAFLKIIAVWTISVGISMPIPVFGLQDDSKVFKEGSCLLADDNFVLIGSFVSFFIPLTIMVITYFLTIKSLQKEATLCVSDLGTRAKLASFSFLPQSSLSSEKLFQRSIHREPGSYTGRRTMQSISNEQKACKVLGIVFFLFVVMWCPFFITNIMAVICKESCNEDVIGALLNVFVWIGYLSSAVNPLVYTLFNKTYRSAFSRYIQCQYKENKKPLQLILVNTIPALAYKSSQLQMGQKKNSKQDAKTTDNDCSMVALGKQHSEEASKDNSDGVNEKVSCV

5-HT2A [4] = molecular target: T3, 5-HT2A; experiment: Calcium flux (FLIPR) assay, human 5-HT2A stably expressed in HEK-293 (Flp-In-293) cells; details: for EC50: EC50, nM 5-HT2A, NA = no activity at 10 μM; for EC50 / Emax, % 5-HT 5-HT2A: human 5-HT2A in HEK-293 cells, FLIPR; for Emax, % 5-HT 5-HT2A: normalized to 5-HT
Target sequence in this assay (P28223 whole entry): as the sequence (P28223 whole entry, species assumed) above

human 5-HT2C-INI = molecular target: T4, human 5-HT2C-INI (Homo sapiens, UniProt P28335); experiment: Calcium flux (FLIPR) assay, human 5-HT2C-INI stably expressed in HEK-293 (Flp-In-293) cells; details: for EC50: EC50, nM 5-HT2C, NA = no activity at 10 μM; for EC50 / Emax, % 5-HT 5-HT2C: human 5-HT2C-INI in HEK-293 cells, FLIPR; for Emax, % 5-HT 5-HT2C: normalized to 5-HT
T4 sequence (P28335 33-458): T1 sequence (P28335 33-458)

C57BL/6J mice = experiment: Amphetamine-stimulated activity test (open field), schizophrenia-like animal model; details: for influence on spontaneous activity, compound alone: 20 mg/kg i.p., 20-Veh groups; for AMPH-stimulated hyperlocomotion relative to the Veh-AMPH group: 10 or 20 mg/kg i.p., 3 mg/kg amphetamine, distance travelled 16-120 min, p-values<0.035; for dose dependence of suppression of AMPH hyperactivity: 10 versus 20 mg/kg i.p.
5-HT2B [5] = molecular target: T2, 5-HT2B; experiment: Calcium flux (FLIPR) assay, human 5-HT2B stably expressed in HEK-293 (Flp-In-293) cells; details: human 5-HT2B in HEK-293 cells; for EC50: EC50, nM 5-HT2B, NA = no activity at 10 μM; for Emax, % 5-HT 5-HT2B: normalized to 5-HT
Target sequence in this assay (P41595 whole entry): as the sequence (P41595 whole entry, species assumed) above

[6] = several animal models; cited from earlier work
[7] = clinical trials, compared to the placebo group; cited from earlier work

SMILES	EC50 (5-HT2A [4]) [nM]	Emax, % 5-HT 5-HT2A (5-HT2A [4])	EC50 (human 5-HT2C-INI) [nM]	Emax, % 5-HT 5-HT2C (human 5-HT2C-INI)	influence on spontaneous activity, compound alone (C57BL/6J mice)	AMPH-stimulated hyperlocomotion relative to the Veh-AMPH group (C57BL/6J mice)	dose dependence of suppression of AMPH hyperactivity (C57BL/6J mice)	other results
Cc1cccc(C2CC2CN)c1 (stereo not drawn)	–	–	–	–	–	–	–	selectivity over 5-HT(2A) (5-HT2C receptor; 5-HT2C versus 5-HT2A): 120 fold; selectivity for 5-HT2C relative to 5-HT2B (5-HT2C receptor): 14 fold; EC50 (5-HT2C receptor; background, reported values): 4.8 nM; antidepressant-like effects [1]: moderate antidepressant-like effects; EC50 (5-HT2B [2]): 65 nM; EC50 (5-HT2A [3]; reported values): 585 nM
C=CCOc1ccc(F)cc1C1CC1CN (single isomer, unassigned; (+)) [(+)-Example 8, (+)-(2-(2-(Allyloxy)-5-fluorophenyl)cyclopropyl)methanamine]	374	(56%) % 5-HT	4.2	(87%) % 5-HT	little influence	significantly reduced	dose-dependently suppressed the hyperactivity	–
NCC1CC1c1cc(F)ccc1OCCF (single isomer, unassigned; (+)) [(+)-Example 10, (+)-(2-(5-Fluoro-2-(2-fluoroethoxy)phenyl)cyclopropyl)methanamine]	359	(76%) % 5-HT	3.4	(89%) % 5-HT	little influence	significantly reduced	not differentiated by dose	–
NCC1CC1c1cc(Cl)ccc1OCCF (single isomer, unassigned; (+)) [(+)-Example 19, (+)-(2-(5-Chloro-2-(2-fluoroethoxy)phenyl)cyclopropyl)methanamine]	1480	(35%) % 5-HT	32	(86%) % 5-HT	–	significantly reduced	not differentiated by dose	EC50 (5-HT2B [5]): 632 nM; Emax, % 5-HT 5-HT2B (5-HT2B [5]): (31%) % 5-HT
C=C(F)COc1ccc(Cl)cc1C1CC1CN (single isomer, unassigned; (+)) [(+)-Example 25, (+)-(2-(5-Chloro-2-((2-fluoroallyl)oxy)phenyl)cyclopropyl)methanamine]	–	–	133	(81%) % 5-HT	little influence	significantly reduced	dose-dependently suppressed the hyperactivity	EC50 (5-HT2B [5]): 1690 nM; Emax, % 5-HT 5-HT2B (5-HT2B [5]): (27%) % 5-HT
Clc1cccc(COc2cncc(N3CCNCC3)n2)c1 [CP-809,101]	–	–	–	–	–	–	–	selectivity for 5-HT2C relative to 5-HT2B (5-HT2C receptor): about 600 fold; Emax at 5-HT2C (5-HT2C receptor; background, reported values): 93%; Emax at 5-HT2B (5-HT2B [2]): 57%
c1cc2c3c(c1)[C@H]1CCC[C@H]1N3CCNC2 [WAY-163909]	–	–	–	–	–	–	–	Emax at 5-HT2B (5-HT2B [2]): 40%; agonist activity at 5-HT2A (5-HT2A [3]; reported): no agonist activity; preclinical antipsychotic-like activity [6]: good preclinical antipsychotic-like activity
C[C@H]1CNCCc2ccc(Cl)cc21 [lorcaserin, reference compound]	–	–	–	(99%) % 5-HT	–	–	–	Emax (5-HT2A [4]; read-out: 5-HT2A Emax Std. Error): 68%; incidence of cardiac valve disorders [7]: higher incidence of cardiac valve disorders; Emax (human 5-HT2C-INI; read-out: 5-HT2C Emax Std. Error): 99%
